Test results as given in publication PMC6934184, “Selective DNA-PKcs inhibition extends the therapeutic index of localized radiotherapy and chemotherapy” (The Journal of Clinical Investigation, 2019).

Biological target: T1, EPHA4 (Homo sapiens, UniProt P54764)
T1 construct: purchased Thermo Fisher Scientific (Life Technologies) SelectScreen
Assay: SelectScreen Z'LYTE
Assay type: biochemical
Outline: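 SelectScreen broad panel; activity (Z'LYTE, Adapta) plus binding formats. ATP: Km app for CSF1R Z'LYTE; 10 for CAMK1 Adapta. Readout = % per kinase.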

T1 sequence (P54764 20-986): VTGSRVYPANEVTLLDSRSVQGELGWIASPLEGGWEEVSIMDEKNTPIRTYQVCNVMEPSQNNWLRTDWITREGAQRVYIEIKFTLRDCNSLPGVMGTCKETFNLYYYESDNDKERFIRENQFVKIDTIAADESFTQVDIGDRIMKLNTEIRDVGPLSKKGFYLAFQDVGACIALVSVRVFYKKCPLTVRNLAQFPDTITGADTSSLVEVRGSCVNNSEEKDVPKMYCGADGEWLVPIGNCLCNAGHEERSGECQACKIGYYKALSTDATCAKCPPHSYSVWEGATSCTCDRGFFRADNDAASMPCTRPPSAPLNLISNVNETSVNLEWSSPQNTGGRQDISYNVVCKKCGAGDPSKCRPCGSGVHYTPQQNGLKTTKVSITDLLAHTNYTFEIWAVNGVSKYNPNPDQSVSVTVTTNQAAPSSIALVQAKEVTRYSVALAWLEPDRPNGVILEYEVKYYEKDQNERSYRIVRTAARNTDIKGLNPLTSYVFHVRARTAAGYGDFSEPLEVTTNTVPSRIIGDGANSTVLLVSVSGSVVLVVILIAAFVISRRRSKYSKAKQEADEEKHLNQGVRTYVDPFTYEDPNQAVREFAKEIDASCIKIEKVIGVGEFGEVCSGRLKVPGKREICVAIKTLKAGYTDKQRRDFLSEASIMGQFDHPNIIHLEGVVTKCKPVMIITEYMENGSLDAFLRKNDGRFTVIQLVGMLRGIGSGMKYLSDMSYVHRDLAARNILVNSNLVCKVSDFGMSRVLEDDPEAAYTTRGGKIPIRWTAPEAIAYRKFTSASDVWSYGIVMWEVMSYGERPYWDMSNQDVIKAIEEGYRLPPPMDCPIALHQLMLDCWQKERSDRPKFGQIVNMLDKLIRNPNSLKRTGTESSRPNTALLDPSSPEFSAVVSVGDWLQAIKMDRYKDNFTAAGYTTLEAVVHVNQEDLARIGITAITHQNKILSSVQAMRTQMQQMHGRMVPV

CN(C(=O)CN1CCOCC1)c1ccc2sc3c(-c4cccc5c(=O)cc(N6CC7CCC(C6)O7)oc45)cccc3c2c1 [NU5455]
inhibition at 1 µM: 2.9%
